Measurements: ChEMBL document CHEMBL3044660, “Synthesis of 2-amino-6-oxocyclohexenylsulfonamides and their activity against Botrytis cinerea” (Pest Manag Sci, 2011)
≈ marks a conversion by molar mass, not a printed value.

Legend:
Botrytis cinerea [1] = assay: Fungicidal activity against Botryotinia fuckeliana in 2 hr compound pretreated cucumber seedling assessed as inhibition of spot diameter squared as control efficiency at 200 ug/ml measured after 72 hr; assay type: functional; set-up: scale not given: the % may be the effect or the level left
Botrytis cinerea [2] = assay: Fungicidal activity against Botryotinia fuckeliana assessed as inhibition of spore germination measured after 24 hr; assay type: functional, organism-based
Botrytis cinerea [3] = assay: Fungicidal activity against Botryotinia fuckeliana assessed as germ-tube elongation inhibition at 50 ug/ml measured after 24 hr; assay type: functional
Botrytis cinerea [4] = assay: Fungicidal activity against Botryotinia fuckeliana assessed as inhibition of mycelial growth measured after 72 hr; assay type: functional, organism-based

Row | Structure (SMILES) | Activity (Botrytis cinerea [1]) [%] | EC50 (Botrytis cinerea [2]) [µg/mL] | EC80 (Botrytis cinerea [2]) [µg/mL] | inhibition at 50 µg/mL (Botrytis cinerea [3]) [%] | EC50 (Botrytis cinerea [4]) [µg/mL]
1 | CCCNC1=C(S(=O)(=O)NCCC)C(=O)CC(C)(C)C1 | 66.59 | 0.23 (≈ 0.76 µM) | 15.6 (≈ 51.7 µM) | 51.2 | 149 (≈ 494 µM)
2 | O=C1CCCC(Nc2ccccc2Cl)=C1S(=O)(=O)Nc1ccccc1Cl | 74.81 | 0.37 (≈ 0.9 µM) | 60.9 (≈ 148 µM) | 81.9 | 10.6 (≈ 25.7 µM)
3 | O=C1CCCC(Nc2ccc(Cl)cc2)=C1S(=O)(=O)Nc1ccc(Cl)cc1 | 53.57 | 0.26 (≈ 0.632 µM) | > 200 | 61.3 | 125 (≈ 305 µM)
4 | Cc1ccc(NC2=C(S(=O)(=O)Nc3ccc(C)cc3)C(=O)CCC2)cc1 | 57.48 | 0.54 (≈ 1.46 µM) | 117 (≈ 315 µM) | 20.5 | 47.4 (≈ 128 µM)
5 | CC1(C)CC(=O)C(S(=O)(=O)Nc2ccccc2Cl)=C(Nc2ccccc2Cl)C1 | 73.39 | 0.34 (≈ 0.774 µM) | 4.53 (≈ 10.3 µM) | 85.7 | 21.2 (≈ 48.2 µM)
6 | CC1(C)CC(=O)C(S(=O)(=O)Nc2cccc(Cl)c2)=C(Nc2cccc(Cl)c2)C1 | 58.51 | 3.03 (≈ 6.9 µM) | 128 (≈ 290 µM) | 58.6 | 32.7 (≈ 74.4 µM)
7 | CC1(C)CC(=O)C(S(=O)(=O)Nc2ccc(Cl)cc2)=C(Nc2ccc(Cl)cc2)C1 | 65.89 | 0.54 (≈ 1.23 µM) | 7.04 (≈ 16 µM) | 78.6 | 128 (≈ 290 µM)
8 | CC1(C)CC(=O)C(S(=O)(=O)Nc2ccc(Cl)c(Cl)c2)=C(Nc2ccc(Cl)c(Cl)c2)C1 | 69.77 | 2.66 (≈ 5.23 µM) | 12.3 (≈ 24.2 µM) | 64.3 | 67.7 (≈ 133 µM)
9 | CC1(C)CC(=O)C(S(=O)(=O)Nc2ccc(Br)cc2)=C(Nc2ccc(Br)cc2)C1 | 45.09 | 1.44 (≈ 2.73 µM) | 7.39 (≈ 14 µM) | 67.9 | 39.1 (≈ 74.1 µM)
10 | CC1(C)CC(=O)C(S(=O)(=O)Nc2ccccc2)=C(Nc2ccccc2)C1 | 61.17 | 96.6 (≈ 261 µM) | > 200 | 21.4 | 147 (≈ 398 µM)
11 | CC1(C)CC(=O)C(S(=O)(=O)NCc2ccccc2)=C(NCc2ccccc2)C1 | 42.16 | 73.4 (≈ 184 µM) | 139 (≈ 349 µM) | 28.6 | 26.4 (≈ 66.2 µM)
12 | Cc1ccccc1NC1=C(S(=O)(=O)Nc2ccccc2C)C(=O)CC(C)(C)C1 | 64.43 | 19.5 (≈ 49 µM) | 140 (≈ 352 µM) | 57.2 | 8.05 (≈ 20.2 µM)
13 | Cc1ccc(NC2=C(S(=O)(=O)Nc3ccc(C)cc3)C(=O)CC(C)(C)C2)cc1 | 58.6 | 3.29 (≈ 8.26 µM) | 72.1 (≈ 181 µM) | 57.2 | 22.8 (≈ 57.2 µM)
14 | Cc1cc(F)ccc1NC1=C(S(=O)(=O)Nc2ccc(F)cc2C)C(=O)CC(C)(C)C1 | 73.46 | 1.59 (≈ 3.66 µM) | > 200 | 42.9 | 45.7 (≈ 105 µM)
15 | CC1(C)CC(=O)C(S(=O)(=O)Nc2ccc(Cl)cc2C(F)(F)F)=C(Nc2ccc(Cl)cc2C(F)(F)F)C1 | 47.92 | 6.14 (≈ 10.7 µM) | > 200 | 51.1 | 154 (≈ 268 µM)
16 | CC1(C)CC(=O)C(S(=O)(=O)Nc2cccc(C(F)(F)F)c2)=C(Nc2cccc(C(F)(F)F)c2)C1 | 67.74 | 0.16 (≈ 0.316 µM) | 14.2 (≈ 27.9 µM) | 30.6 | 156 (≈ 308 µM)
17 | CC1(C)CC(=O)C(S(=O)(=O)Nc2cc(C(F)(F)F)cc(C(F)(F)F)c2)=C(Nc2cc(C(F)(F)F)cc(C(F)(F)F)c2)C1 | 75.29 | 0.51 (≈ 0.794 µM) | 34.8 (≈ 54.2 µM) | 61.5 | 92.2 (≈ 144 µM)
18 | CC1(C)CC(=O)C(S(=O)(=O)NC2CCCCC2)=C(NC2CCCCC2)C1 | 82.21 | 0.64 (≈ 1.67 µM) | 15.4 (≈ 40.3 µM) | 61.5 | 63.7 (≈ 167 µM)
19 | CC12CC1(C)C(=O)N(c1cc(Cl)cc(Cl)c1)C2=O (stereo not given) [PROCYMIDONE] | 80.39 | 0.98 (≈ 3.45 µM) | 3.18 (≈ 11.2 µM) | 100 | 0.63 (≈ 2.22 µM)
